The record followed here is patent US9284333B2, “Fused pyrroledicarboxamides and their use as pharmaceuticals” (SANOFI, priority 2012, dated 2016).

Chain of Human TASK-1 channels (O14649 whole entry, the tested form may be a part): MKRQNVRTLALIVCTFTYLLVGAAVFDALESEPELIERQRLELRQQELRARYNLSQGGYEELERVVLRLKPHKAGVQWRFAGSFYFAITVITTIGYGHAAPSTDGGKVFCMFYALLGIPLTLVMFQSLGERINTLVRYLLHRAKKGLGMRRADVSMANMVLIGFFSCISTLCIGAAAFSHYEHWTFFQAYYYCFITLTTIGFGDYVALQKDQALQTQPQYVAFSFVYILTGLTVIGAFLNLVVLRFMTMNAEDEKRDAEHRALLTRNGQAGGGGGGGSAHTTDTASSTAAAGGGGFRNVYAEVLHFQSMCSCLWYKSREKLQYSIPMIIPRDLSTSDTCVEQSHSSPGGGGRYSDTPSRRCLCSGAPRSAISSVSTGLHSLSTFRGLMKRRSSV

One test has as its target Human TASK-1 channels (Homo sapiens (Human), UniProt O14649). As to the kind of experiment: Determination of the activity on the TASK-1 channel in Xenopus oocytes (two-microelectrode voltage clamp). Type of test: cell-based. Particulars: compound concentration 5 μM. The method, boiled down: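 Xenopus oocytes were injected with human TASK-1 cRNA and recorded two days later by two-microelectrode voltage clamp, holding at −90 mV with 500 ms steps to 40 mV. Superfusion used ND96, pH 7.4, at room temperature, with rising compound concentrations; percentage inhibition of control current was fitted to a dose-response curve for IC50.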
Compound `CC(C)[C@@H](NC(=O)c1cc(C(=O)N2CCC[C@@H]2C)c2n1CCOC2)c1ccc(C#N)nc1` [16nm, 8-((S)-2-Methyl-pyrrolidine-1-carbonyl)-3,4-dihydro-1H-pyrrolo[2,1-c][1,4]oxazine-6-carboxylic acid [(R)-1-(6-cyano-pyridin-3-yl)-2-methyl-propyl]-amide] registered an inhibition at 5 µM of 77%.

The test is the same for the next values; noted with them: human TASK-1 expressed in Xenopus oocytes, room temperature; read-out: IC50 value for TASK-1 inhibition.
With `CC[C@@H](NC(=O)c1cc(C(=O)NCC2CC2)n2c1CCCC2)c1ccccc1` [16mf, 5,6,7,8-Tetrahydro-indolizine-1,3-dicarboxylic acid 3-cyclopropylmethyl-amide 1-[((R)-1-phenyl-propyl)-amide]], the concentration for half-maximal inhibition (IC50) is 260 nM.

On to `CCOC(=O)C[C@H]1CCCN1C(=O)c1cc(C(=O)N[C@H](C)c2ccc(F)cc2)n2c1COCC2` [16dl, ((R)-1-{6-[(R)-1-(4-Fluoro-phenyl)-ethylcarbamoyl]-3,4-dihydro-1H-pyrrolo[2,1-c][1,4]oxazine-8-carbonyl}-pyrrolidin-2-yl)-acetic acid ethyl ester], for which the IC50 came out at 62 nM.

As to `CC[C@@H](NC(=O)c1cc(C(=O)N2CCCC2)n2c1COCC2)c1ccc(F)cc1F` [16de], the concentration for half-maximal inhibition (IC50) amounted to 49 nM.

Take `CC[C@@H](NC(=O)c1cc(C(=O)NCc2nnn(C)n2)n2c1COCC2)c1ccccc1` [16rs, 3,4-Dihydro-1H-pyrrolo[2,1-c][1,4]oxazine-6,8-dicarboxylic acid 6-[(2-methyl-2H-tetrazol-5-ylmethyl)-amide] 8-[((R)-1-phenyl-propyl)-amide]]: the 50% inhibitory concentration (IC50) turned out to be 2500 nM.

In the case of `CC[C@@H](NC(=O)c1cc(C(=O)N2CCC[C@@H]2C)n2c1COCC2)c1ccc(C(F)(F)F)cc1F` [16ct, 6-((S)-2-Methyl-pyrrolidine-1-carbonyl)-3,4-dihydro-1H-pyrrolo[2,1-c][1,4]oxazine-8-carboxylic acid [(R)-1-(2-fluoro-4-trifluoromethyl-phenyl)-propyl]-amide], the IC50 was found to be 210 nM.

As for `CC[C@@H](NC(=O)c1cc(C(=O)NCC2CC2)n2c1COCC2)c1ccccc1Cl` [16ld, 3,4-Dihydro-1H-pyrrolo[2,1-c][1,4]oxazine-6,8-dicarboxylic acid 8-{[(R)-1-(2-chloro-phenyl)-propyl]-amide} 6-cyclopropylmethyl-amide], the 50% inhibitory concentration (IC50) is 80 nM.

With `CC[C@@H](NC(=O)c1cc(C(=O)N[C@@H](C)C(=O)OC(C)C)n2c1COCC2)c1ccccc1` [16it, (S)-2-{[8-((R)-1-Phenyl-propylcarbamoyl)-3,4-dihydro-1H-pyrrolo[2,1-c][1,4]oxazine-6-carbonyl]-amino}-propionic acid isopropyl ester], the half-inhibitory concentration (IC50) turned out to be 130 nM.

Turning to `CC[C@@H](NC(=O)c1cc(C(=O)N[C@H](CC)c2cnc(OC)cn2)n2c1COCC2)c1ccccc1` [16hy, 3,4-Dihydro-1H-pyrrolo[2,1-c][1,4]oxazine-6,8-dicarboxylic acid 6-{[(R)-1-(5-methoxy-pyrazin-2-yl)-propyl]-amide} 8-[((R)-1-phenyl-propyl)-amide]], the IC50 is 41 nM.

With `CCC(NC(=O)c1cc(C(=O)N2CCC[C@@H]2C)n2c1COCC2)c1nccs1` (stereo partly drawn) [16ae, 6-((S)-2-Methyl-pyrrolidine-1-carbonyl)-3,4-dihydro-1H-pyrroIo[2,1-c][1,4]oxazine-8-carboxylic acid (1-thiazol-2-yl-propyl)-amide], the half-maximal inhibitory concentration (IC50) amounted to 670 nM.

For `CC[C@@H](NC(=O)c1cc(C(=O)NC(C)c2cnc(OC)cn2)n2c1COCC2)c1ccccc1` (stereo partly drawn) [16iv, 3,4-Dihydro-1H-pyrrolo[2,1-c][1,4]oxazine-6,8-dicarboxylic acid 6-{[1-(5-methoxy-pyrazin-2-yl)-ethyl]-amide} 8-[((R)-1-phenyl-propyl)-amide]], the half-inhibitory concentration (IC50) amounted to 120 nM.

In the case of `CC[C@@H](NC(=O)c1cc(C(=O)NCc2c(C)noc2C)c2n1CCOC2)c1ccccc1` [16jl, 3,4-Dihydro-1H-pyrrolo[2,1-c][1,4]oxazine-6,8-dicarboxylic acid 8-[(3,5-dimethyl-isoxazol-4-ylmethyl)-amide] 6-[((R)-1-phenyl-propyl)-amide]], the half-maximal inhibitory concentration (IC50) is 3200 nM.

For `CC[C@@H](NC(=O)c1cc(C(=O)N2CCC[C@@H]2C)n2c1COCC2)c1cccnc1C(F)(F)F` [16r, 6-((S)-2-Methyl-pyrrolidine-1-carbonyl)-3,4-dihydro-1H-pyrrolo[2,1-c][1,4]oxazine-8-carboxylic acid [(R)-1-(2-trifluoromethyl-pyridin-3-yl)-propyl]-amide], the IC50 came to 1900 nM.

On to `CC[C@@H](NC(=O)c1cc(C(=O)N[C@H](C)c2ccc(F)cc2)n2c1COCC2)c1ccc(C(F)(F)F)cc1` [16eb, 3,4-Dihydro-1H-pyrrolo[2,1-c][1,4]oxazine-6,8-dicarboxylic acid 6-{[(R)-1-(4-fluoro-phenyl)-ethyl]-amide} 8-{[(R)-1-(4-trifluoromethyl-phenyl)-propyl]-amide}], for which the IC50 was found to be 250 nM.

As for `CC[C@@H](NC(=O)c1cc(C(=O)N2CCC[C@@H]2c2cnccn2)n2c1COCC2)c1ccccc1` [16fp, 6-((R)-2-Pyrazin-2-yl-pyrrolidine-1-carbonyl)-3,4-dihydro-1H-pyrrolo[2,1-c][1,4]oxazine-8-carboxylic acid ((R)-1-phenyl-propyl)-amide], the concentration for half-maximal inhibition (IC50) amounted to 1900 nM.

For the compound `CC[C@@H](NC(=O)c1cc(C(=O)NC(C2CC2)C2CC2)n2c1COCC2)c1ccccc1` [16hb, 3,4-Dihydro-1H-pyrrolo[2,1-c][1,4]oxazine-6,8-dicarboxylic acid 6-dicyclopropylmethyl-amide 8-[((R)-1-phenyl-propyl)-amide]], the IC50 amounted to 13 nM.

Turning to `CC[C@@H](NC(=O)c1cc(C(=O)NC(C)c2cccc(S(=O)(=O)N(C)C)c2)n2c1COCC2)c1ccccc1` (stereo partly drawn) [16rj, 3,4-Dihydro-1H-pyrrolo[2,1-c][1,4]oxazine-6,8-dicarboxylic acid 6-{[1-(3-dimethylsulfamoyl-phenyl)-ethyl]-amide} 8-[((R)-1-phenyl-propyl)-amide]], the half-maximal inhibitory concentration (IC50) came to 1100 nM.

Regarding `CC[C@@H](NC(=O)c1cc(C(=O)N2CCC[C@@H]2C)n2c1COCC2)c1ccc(C(F)(F)F)c(F)c1` [16bm, 6-((S)-2-Methyl-pyrrolidine-1-carbonyl)-3,4-dihydro-1H-pyrrolo[2,1-c][1,4]oxazine-8-carboxylic acid [(R)-1-(3-fluoro-4-trifluoromethyl-phenyl)-propyl]-amide], the half-maximal inhibitory concentration (IC50) amounted to 93 nM.

With `CC[C@@H](NC(=O)c1cc(C(=O)N2CCC[C@@H]2C)n2c1COCC2)c1c(F)cccc1F` [16t, 6-((S)-2-Methyl-pyrrolidine-1-carbonyl)-3,4-dihydro-1H-pyrrolo[2,1-c][1,4]oxazine-8-carboxylic acid [(R)-1-(2,6-difluoro-phenyl)-propyl]-amide], the half-inhibitory concentration (IC50) amounted to 44 nM.

For `CC[C@@H](NC(=O)c1cc(C(=O)N2CCC[C@@H]2C)n2c1COCC2)c1ncc(C(F)(F)F)cn1` [16bh, 6-((S)-2-Methyl-pyrrolidine-1-carbonyl)-3,4-dihydro-1H-pyrrolo[2,1-c][1,4]oxazine-8-carboxylic acid [(R)-1-(5-trifluoromethyl-pyrimidin-2-yl)-propyl]-amide], the IC50 amounted to 920 nM.

For `CC[C@@H](NC(=O)c1cc(C(=O)NCc2ncccn2)c2n1CCOC2)c1ccccc1` [16jm, 3,4-Dihydro-1H-pyrrolo[2,1-c][1,4]oxazine-6,8-dicarboxylic acid 6-[((R)-1-phenyl-propyl)-amide] 8-[(pyrimidin-2-ylmethyl)-amide]], the 50% inhibitory concentration (IC50) is 1500 nM.

Usually inhibition stands for the drop in the measured response relative to a control, in per cent. The term IC50 denotes the concentration needed to halve the response being measured.
